Measured values from patent US6924304B2, “Cell proliferation inhibitors” (Abbott Laboratories, priority 1999, dated 2005).
Counter-ions that a name gives are not always drawn.

Tests used:
[1] = tested on: human colon adenocarcinoma, MDR positive (HCT-15) cells; test: 48-hour cellular proliferation assay (sulforhodamine staining), HCT-15 cells; assay type: cell-based; conditions: 10^−4 M compound, HCT-15 cells (MDR positive); for inhibition at 100 µM: Homo sapiens
Experimental: (§1) Compounds of this invention were tested in a 48-hour cellular proliferation assay which uses human colon adenocarcinoma, MDR positive (HCT-15) cells, and human lung large cell carcinoma, MDR negative (NCI-H460) cells, in the 96-well microtitre format described in Skehan P., et al. New Colorimetric Cytotoxicity Assay for Anticancer Drug Screening. 1990, J. Natl. Cancer Inst. 82:1107-1112, hereby incorporated by reference. Briefly, the wells of a microtitre plate were charged sequentially with cultured cells and compounds of the invention (1.0×10^−4 to 1.0×10^−11 M in 10% DMSO prepared by dissolving compounds of the invention in DMSO and adding 11 μL of the DMSO solution to 100 μL of culture medium for a final DMSO concentration of 10%). Two of the following controls were also present in each microtitre plate: a solvent (DMSO) control without drug that yielded a 0% inhibition level and a trichloroacetic acid-treated well that yielded a 100% inhibition level. The cells were grown in culture (37° C., 5% CO2 atmosphere) for 48 hours then fixed by the addition of trichloroacetic acid. The wells were stained with sulforhodamine, washed with 1% acetic acid, and treated with 0.01 M tris buffer (100 μL) to solubilize the adherent dye. The absorbance of the dye solution was measured with a Molecular Devices SpectraMax340 plate reader. The percent inhibition values were obtained by calculating the proportional response of the experimental values to the absorbance values of the controls.

[2] = tested on: human lung large cell carcinoma, MDR negative (NCI-H460) cells; test: 48-hour cellular proliferation assay (sulforhodamine staining), NCI-H460 cells; assay type: cell-based; conditions: 10^−4 M compound; for inhibition at 100 µM: Homo sapiens, read-out: NCI-460 % inhibition at 10^−4 M
Experimental: as §1

SMILES	HCT-15 % inhibition at 10^−4 M [1]	NCI-460 % inhibition at 10^−4 M [2]	inhibition at 100 µM [2]	inhibition at 100 µM [1]
COc1cc(S(=O)(=O)Oc2ccc3[nH]ccc3c2)cc(OC)c1OC [Example 39, 1H-indol-5-ol, (3,4,5-trimethoxybenzenesulfonate)ester]	100.0%	100.0%		
COc1cc(NS(=O)(=O)c2ccc3c(ccn3C)c2)cc(OC)c1OC [Example 19, 1-methyl-N-(3,4,5-trimethoxyphenyl)-1H-indole-5-sulfonamide]			100%	
COc1ccc(C(C)(C)S(=O)(=O)c2cc(OC)c(OC)c(OC)c2)cc1N [Example 92, 2-methoxy-5-(1-methyl-1-((3,4,5-trimethoxyphenyl)sulfonyl)ethyl)aniline]			9.1%	67.1%
COc1ccc(NC(=O)c2cc(OC)c(OC)c(OC)c2)cc1O [Example 22, N-(3-hydroxy-4-methoxyphenyl)-3,4,5-trimethoxybenzamide]			99.5%	99.8%
COc1cc(S(=O)(=O)Nc2ccc3[nH]ccc3c2)cc(OC)c1OC [Example 31, N-(1H-indol-5-yl)-3,4,5-trimethoxybenzenesulfonamide]			95.1%	98.6%
COc1cc(S(=O)(=O)Nc2ccc3ncn(C)c3c2)cc(OC)c1OC [Example 35, 3,4,5-trimethoxy-N-(1-methyl-1H-benzimidazol-6-yl)benzenesulfonamide]			34.5%	65.2%
COc1cc(S(=O)(=O)Nc2ccc(N(C)C)cc2)cc(OC)c1OC [Example 24, N-(4-(dimethylamino)phenyl)-3,4,5-trimethoxybenzenesulfonamide]			92%	95.8%
COc1cc(OS(=O)(=O)c2ccc(N(C)C)cc2)cc(OC)c1OC [Example 44, (3,4,5-trimethoxyphenyl)-4-(dimethylamino)benzenesulfonate]			99.9%	100%
COc1cc(NS(=O)(=O)c2ccc(N)cc2)cc(OC)c1OC [Example 6, 4-amino-N-(3,4,5-trimethoxyphenyl)benzenesulfonamide]			> 95%	54.8%
COc1cc(S(=O)(=O)Oc2ccc3[nH]ccc3c2)cc(OC)c1OC [Example 42, 1H-indol-5-yl 3,4,5-trimethoxybenzenesulfonate]			100%	100%
COc1cc(S(=O)(=O)Nc2ccc3ccn(C)c3c2)cc(OC)c1OC [Example 30, 3,4,5-trimethoxy-N-(1-methyl-1H-indol-6-yl)benzenesulfonamide]			83.8%	94.9%
COc1cc(NS(=O)(=O)c2ccc(OC(F)(F)F)cc2)cc(OC)c1OC [Example 3, 4-trifluoromethoxy-N-(3,4,5-trimethoxyphenyl)benzenesulfonamide]			100%	94.4%
COc1ccc(NS(=O)(=O)c2cc(OC)c(OC)c(OC)c2)cc1 [Example 21, 3,4,5-trimethoxy-N-(4-methoxyphenyl)benenesulfonamide]	97.8%	96.0%		
COc1ccc(S(=O)(=O)Nc2cc(OC)c(OC)c(OC)c2)cc1[N+](=O)[O-] [Example 9, 4-methoxy-3-nitro-N-(3,4,5-trimethoxyphenyl)benzenesulfonamide]			47.4%	77.2%
COc1cc(S(=O)(=O)Nc2ccc3[nH]cc(Cl)c3c2)cc(OC)c1OC [Example 33, N-(3-chloro-1H-indol-5-yl)-3,4,5-trimethoxybenzenesulfonamide]			2.8%	92%
COc1cc(S(=O)(=O)Nc2ccc(OC(F)(F)F)cc2)cc(OC)c1OC [Example 26, 3,4,5-trimethoxy-N-(4-(trifluoromethoxy)phenyl)benzenesulfonamide]			46.7%	70.9%
COc1ccc(CSc2cc(OC)c(OC)c(OC)c2)cc1N [Example 89, 2-methoxy-5-(((3,4,5-trimethoxyphenyl)sulfanyl)methyl)aniline]			99.9%	99.9%
COc1cc(S(=O)(=O)Nc2ccc3c(c2)cc(C)n3C)cc(OC)c1OC [Example 32, N-(1,2-dimethyl-1H-indol-5-yl)-3,4,5-trimethoxybenzenesulfonamide]			99.8%	99.8%
COc1ccc(C(C)(C)S(=O)(=O)c2cc(OC)c(OC)c(OC)c2)cc1 [Example 88, 1,2,3-trimethoxy-5-((1-(4-methoxyphenyl)-1-methylethyl)sulfonyl)benzene]			58.4%	85.5%
COc1ccc(S(=O)(=O)Cc2cc(OC)c(OC)c(OC)c2)cc1 [Example 94, 1,2,3-trimethoxy-5-(((4-methoxyphenyl)sulfonyl)methyl)benzene]			90.1%	97.7%
COc1cc(OS(=O)(=O)c2ccc(C)cc2)cc(OC)c1OC [Example 41, (3,4,5-trimethoxyphenyl) 4-methylbenzenesulfonate]			99.5%	99.8%
COc1ccc(NS(=O)(=O)c2cc(OC)c(OC)c(OC)c2)cc1N [Example 28, N-(3-amino-4-methoxyphenyl)-3,4,5-trimethoxybenzenesulfonamide hydrochloride]			99.8%	99.9%
COc1ccc(S(=O)(=O)Oc2cc(OC)c(OC)c(OC)c2)cc1 [Example 40, (3,4,5-trimethoxyphenyl) 4-methoxybenzenesulfonate]			99.9%	99.9%
COc1cc(OS(=O)(=O)c2ccc3c(c2)CCN3C)cc(OC)c1OC [Example 46, 3,4,5-trimethoxyphenyl 1-methyl-5-indolinesulfonate]			99.5%	99.6%
COc1ccc(C[S+]([O-])c2cc(OC)c(OC)c(OC)c2)cc1N (stereo not shown) [Example 90, 2-methoxy-5-(((3,4,5-trimethoxyphenyl)sulfinyl)methyl)aniline]			99.8%	99.5%
COc1cc(S(=O)(=O)Nc2ccc3[nH]ncc3c2)cc(OC)c1OC [Example 34, N-(1H-indazol-5-yl)-3,4,5-trimethoxybenzenesulfonamide]			18.5%	47.6%
COc1cc(S(=O)(=O)Nc2ccc3c(ccn3C)c2)cc(OC)c1OC [Example 23, N-(1-methyl-1H-indol-5-yl)-3,4,5-trimethoxybenzenesulfonamide]			100%	100%
COc1cc(NS(=O)(=O)c2c[nH]c3ccc(N)cc23)cc(OC)c1OC [Example 17, 5-amino-N-(3,4,5-trimethoxyphenyl)-1H-indole-3-sulfonamide]			< 9.1%	
COc1ccc(CS(=O)(=O)c2cc(OC)c(OC)c(OC)c2)cc1N [Example 91, 2-methoxy-5-(((3,4,5-trimethoxyphenyl)sulfonyl)methyl)aniline]			99.8%	95%
COc1cc(S(=O)(=O)Nc2cccc3c2ccn3C)cc(OC)c1OC [Example 29, 3,4,5-trimethoxy-N-(1-methyl-1H-indol-4-yl)benzenesulfonamide]			90.8%	95.1%
